Data: the supplement of paper PMC10883282
± gives the standard deviation of the averaged measurements.

Test system: RD-ES
Assay: relative viability vs DMSO control (72 h) (fraction); higher = more viable cells
Summary of the method: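 Sarcoma cell lines were seeded in 384-well plates at densities chosen for 80–90% confluence, then 24 h later given 2.5 µl of serially diluted compound drawn from source plates spanning 10 mM to 0.0002 mM. They were held 72 h at 37 °C, 5% CO2, with 0.1% DMSO vehicle and a 5 µM positive control included. Relative viability was read with ATPLite as percent growth and averaged over up to triplicate wells. Rescaling placed full at 1 and none at 0.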

SMILES | relative viability (2 pM) | relative viability (5 pM) | relative viability (15 pM) | relative viability (50 pM) | relative viability (0.00014 µM) | relative viability (0.00041 µM) | relative viability (0.0012 µM) | relative viability (0.0037 µM) | relative viability (0.011 µM) | relative viability (200 fM) | relative viability (600 fM) | relative viability (0.00017 µM) | relative viability (0.00051 µM) | relative viability (0.00152 µM) | relative viability (0.00457 µM) | relative viability (0.01372 µM) | relative viability (0.04115 µM) | relative viability (0.1235 µM) | relative viability (0.3704 µM) | relative viability (1.111 µM) | relative viability (3.333 µM) | relative viability (10 µM)
COc1cc2c(cc1O)CCN[C@]21CS[C@@H]2c3c(OC(C)=O)c(C)c4c(c3[C@H](COC1=O)N1[C@@H]2[C@H]2c3c(cc(C)c(OC)c3O)C[C@@H]([C@@H]1O)N2C)OCO4 [Trabectedin] | 0.979 ± 0.032 | 0.954 ± 0.052 | 0.833 ± 0.06 | 0.581 ± 0.008 | 0.0757 ± 0.0065 | 0.0099 ± 0.002 | 0.00377 ± 0.00023 | 0.0027 ± 0.00085 | 0.00663 ± 0.00032 | 0.9532 ± 0.0081 | 0.985 ± 0.056 | – | – | – | – | – | – | – | – | – | – | –
Nc1cc(C(F)(F)F)c(-c2cc(N3CCOCC3)nc(N3CCOCC3)n2)cn1 [Buparlisib] | – | – | – | – | – | – | – | – | – | – | – | 0.97 ± 0.037 | 0.956 ± 0.025 | 0.946 ± 0.026 | 0.949 ± 0.021 | 0.935 ± 0.013 | 0.922 ± 0.01 | 0.864 ± 0.0088 | 0.717 ± 0.021 | 0.341 ± 0.0073 | 0.102 ± 0.0037 | 0.0722 ± 0.0025
CC(C)NC(=O)C1CCC(n2c(NC(=O)c3ccc(F)cc3)nc3ccc(CN4CCC(C(C)(C)O)CC4)cc32)CC1 (centres undefined) [Belizatinib] | – | – | – | – | – | – | – | – | – | – | – | 1.01 ± 0.025 | 1.02 ± 0.021 | 0.997 ± 0.021 | 1.02 ± 0.013 | 1.03 ± 0.021 | 0.995 ± 0.021 | 0.907 ± 0.01 | 0.648 ± 0.02 | 0.455 ± 0.014 | 0.395 ± 0.016 | 0.261 ± 0.009
N#CC[C@H](C1CCCC1)n1cc(-c2ncnc3[nH]ccc23)cn1 [Ruxolitinib] | – | – | – | – | – | – | – | – | – | – | – | 0.938 ± 0.025 | 0.967 ± 0.014 | 0.95 ± 0.031 | 0.949 ± 0.024 | 0.932 ± 0.025 | 0.939 ± 0.05 | 0.933 ± 0.057 | 0.946 ± 0.029 | 0.939 ± 0.028 | 0.941 ± 0.028 | 0.954 ± 0.065
